Experimental data from PubChem BioAssay AID2060488 (Molecular Pharmacology Branch, DTP, NCI, 2025).

Test system: 966289-007-R4-J1-PDC complex spheroid viability
Experiment: Anticancer human tumor 966289-007-R4-J1-PDC patient-derived pancreatic adenocarcinoma cell line growth inhibition [GQUAD]
Conditions: for IC50: curve of first compound; for viability, T/C: stronger effect = lower value
Outline: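 Multi-cell-type spheroids of tumor cells with HUVEC and mesenchymal stem cells, treated with drug combinations. Concentrations descend in half-log steps from near clinical Cmax, or from 10 microM where Cmax is unknown; viability read-out.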

[1] = second compound 0.0316 µM, first compound 0.0316 µM
[2] = second compound 0.0316 µM, first compound 0.1 µM
[3] = second compound 0.0316 µM, first compound 0.316 µM
[4] = second compound 0.0316 µM, first compound 1 µM
[5] = second compound 0.0316 µM, first compound 3.16 µM
[6] = second compound 0.0316 µM, first compound 10 µM
[7] = second compound 0.1 µM, first compound 0.0316 µM
[8] = second compound 0.1 µM, first compound 0.1 µM
[9] = second compound 0.1 µM, first compound 0.316 µM
[10] = second compound 0.1 µM, first compound 1 µM
[11] = second compound 0.1 µM, first compound 3.16 µM
[12] = second compound 0.1 µM, first compound 10 µM
[13] = second compound 0.316 µM, first compound 0.0316 µM
[14] = second compound 0.316 µM, first compound 0.1 µM
[15] = second compound 0.316 µM, first compound 0.316 µM
[16] = second compound 0.316 µM, first compound 1 µM
[17] = second compound 0.316 µM, first compound 3.16 µM
[18] = second compound 0.316 µM, first compound 10 µM
[19] = second compound 1 µM, first compound 0.0316 µM
[20] = second compound 1 µM, first compound 0.1 µM
[21] = second compound 1 µM, first compound 0.316 µM
[22] = second compound 1 µM, first compound 1 µM
[23] = second compound 1 µM, first compound 3.16 µM
[24] = second compound 1 µM, first compound 10 µM
[25] = second compound 3.16 µM, first compound 0.0316 µM
[26] = second compound 3.16 µM, first compound 0.1 µM
[27] = second compound 3.16 µM, first compound 0.316 µM
[28] = second compound 3.16 µM, first compound 1 µM
[29] = second compound 3.16 µM, first compound 3.16 µM
[30] = second compound 3.16 µM, first compound 10 µM
[31] = second compound 10 µM, first compound 0.0316 µM
[32] = second compound 10 µM, first compound 0.1 µM
[33] = second compound 10 µM, first compound 0.316 µM
[34] = second compound 10 µM, first compound 1 µM
[35] = second compound 10 µM, first compound 3.16 µM
[36] = second compound 10 µM, first compound 10 µM
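Further: spheroids exposed to the agents for seven days before readout.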
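Wherever viability, T/C is given: percent viability relative to DMSO vehicle control wells taken as 100%.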

CC(C)(O)C1CCC(Nc2ccc3ncc(-c4cccc(C(F)(F)F)c4)n3n2)CC1 (stereo not drawn) + CN(C)c1ccc(Nc2c3ccc(NC(=O)CCN4CCCC4)cc3nc3cc(NC(=O)CCN4CCCC4)ccc23)cc1
IC50 (second compound 0.0316 µM): > 10000 nM
IC50 (second compound 0.1 µM): 2940 nM
IC50 (second compound 0.316 µM): 3080 nM
IC50 (second compound 1 µM): 2090 nM
IC50 (second compound 3.16 µM): 1830 nM
IC50 (second compound 10 µM): 668 nM
viability, T/C [1]: 108%
viability, T/C [2]: 102%
viability, T/C [3]: 101%
viability, T/C [4]: 95.3%
viability, T/C [5]: 53.1%
viability, T/C [6]: 57.9%
viability, T/C [7]: 109%
viability, T/C [8]: 101%
viability, T/C [9]: 98.1%
viability, T/C [10]: 103%
viability, T/C [11]: 39.4%
viability, T/C [12]: 53.4%
viability, T/C [13]: 97.7%
viability, T/C [14]: 100%
viability, T/C [15]: 95.8%
viability, T/C [16]: 110%
viability, T/C [17]: 43.9%
viability, T/C [18]: 53.8%
viability, T/C [19]: 95.1%
viability, T/C [20]: 103%
viability, T/C [21]: 102%
viability, T/C [22]: 97.5%
viability, T/C [23]: 18.3%
viability, T/C [24]: 28.3%
viability, T/C [25]: 103%
viability, T/C [26]: 98.7%
viability, T/C [27]: 100%
viability, T/C [28]: 106%
viability, T/C [29]: 2.64%
viability, T/C [30]: 1.96%
viability, T/C [31]: 103%
viability, T/C [32]: 104%
viability, T/C [33]: 104%
viability, T/C [34]: 20.9%
viability, T/C [35]: 0.21%
viability, T/C [36]: 0.8%

CC[C@@]1(O)C(=O)OCc2c1cc1n(c2=O)Cc2cc3c(CN(C)C)c(O)ccc3nc2-1 + CN(C)c1ccc(Nc2c3ccc(NC(=O)CCN4CCCC4)cc3nc3cc(NC(=O)CCN4CCCC4)ccc23)cc1
IC50 (second compound 0.0316 µM): 49.8 nM
IC50 (second compound 0.1 µM): 50.3 nM
IC50 (second compound 0.316 µM): 48.5 nM
IC50 (second compound 1 µM): 53.3 nM
IC50 (second compound 3.16 µM): 50.7 nM
IC50 (second compound 10 µM): 24.8 nM
viability, T/C (second compound 0.0316 µM, first compound 0.000999 µM): 100%
viability, T/C (second compound 0.0316 µM, first compound 0.00316 µM): 96.9%
viability, T/C (second compound 0.0316 µM, first compound 0.00999 µM): 92.9%
viability, T/C [1]: 82.1%
viability, T/C (second compound 0.0316 µM, first compound 0.0999 µM): 0.84%
viability, T/C [3]: 0.56%
viability, T/C (second compound 0.1 µM, first compound 0.000999 µM): 102%
viability, T/C (second compound 0.1 µM, first compound 0.00316 µM): 98%
viability, T/C (second compound 0.1 µM, first compound 0.00999 µM): 103%
viability, T/C [7]: 83.5%
viability, T/C (second compound 0.1 µM, first compound 0.0999 µM): 0.82%
viability, T/C [9]: 0.54%
viability, T/C (second compound 0.316 µM, first compound 0.000999 µM): 101%
viability, T/C (second compound 0.316 µM, first compound 0.00316 µM): 96.1%
viability, T/C (second compound 0.316 µM, first compound 0.00999 µM): 107%
viability, T/C [13]: 79%
viability, T/C (second compound 0.316 µM, first compound 0.0999 µM): 0.87%
viability, T/C [15]: 0.83%
viability, T/C (second compound 1 µM, first compound 0.000999 µM): 92.1%
viability, T/C (second compound 1 µM, first compound 0.00316 µM): 96.5%
viability, T/C (second compound 1 µM, first compound 0.00999 µM): 102%
viability, T/C [19]: 91%
viability, T/C (second compound 1 µM, first compound 0.0999 µM): 0.86%
viability, T/C [21]: 0.61%
viability, T/C (second compound 3.16 µM, first compound 0.000999 µM): 96.1%
viability, T/C (second compound 3.16 µM, first compound 0.00316 µM): 98.2%
viability, T/C (second compound 3.16 µM, first compound 0.00999 µM): 110%
viability, T/C [25]: 84.3%
viability, T/C (second compound 3.16 µM, first compound 0.0999 µM): 1.25%
viability, T/C [27]: 0.55%
viability, T/C (second compound 10 µM, first compound 0.000999 µM): 104%
viability, T/C (second compound 10 µM, first compound 0.00316 µM): 89.2%
viability, T/C (second compound 10 µM, first compound 0.00999 µM): 110%
viability, T/C [31]: 36.2%
viability, T/C (second compound 10 µM, first compound 0.0999 µM): 0.73%
viability, T/C [33]: 0.68%

COc1ccc([C@@H](O)c2cc(-c3ncnc4cc(N5CCOCC5)ccc34)c(F)cc2Cl)nn1 + CN(C)c1ccc(Nc2c3ccc(NC(=O)CCN4CCCC4)cc3nc3cc(NC(=O)CCN4CCCC4)ccc23)cc1
IC50 (second compound 0.0316 µM): > 10000 nM
IC50 (second compound 0.1 µM): > 10000 nM
IC50 (second compound 0.316 µM): > 10000 nM
IC50 (second compound 1 µM): > 10000 nM
IC50 (second compound 3.16 µM): > 10000 nM
IC50 (second compound 10 µM): 1970 nM
viability, T/C [1]: 104%
viability, T/C [2]: 98.6%
viability, T/C [3]: 104%
viability, T/C [4]: 108%
viability, T/C [5]: 110%
viability, T/C [6]: 99.5%
viability, T/C [7]: 101%
viability, T/C [8]: 97.8%
viability, T/C [9]: 103%
viability, T/C [10]: 104%
viability, T/C [11]: 109%
viability, T/C [12]: 98.1%
viability, T/C [13]: 99.8%
viability, T/C [14]: 99.5%
viability, T/C [15]: 106%
viability, T/C [16]: 107%
viability, T/C [17]: 107%
viability, T/C [18]: 90.6%
viability, T/C [19]: 101%
viability, T/C [20]: 101%
viability, T/C [21]: 107%
viability, T/C [22]: 108%
viability, T/C [23]: 111%
viability, T/C [24]: 93%
viability, T/C [25]: 101%
viability, T/C [26]: 97.4%
viability, T/C [27]: 108%
viability, T/C [28]: 105%
viability, T/C [29]: 109%
viability, T/C [30]: 83.4%
viability, T/C [31]: 103%
viability, T/C [32]: 97.3%
viability, T/C [33]: 101%
viability, T/C [34]: 89.2%
viability, T/C [35]: 22.6%
viability, T/C [36]: 8.27%

CC(C)(O)C1CCC(Nc2ccc3ncc(-c4cccc(C(F)(F)F)c4)n3n2)CC1 (stereo not drawn) + Cc1cnc(CNC(=O)c2c(=O)c3ccc(N4CCCN(C)CC4)nc3n3c2sc2ccccc23)cn1
IC50 (second compound 0.0316 µM): 2060 nM
IC50 (second compound 0.1 µM): < 31.6 nM
IC50 (second compound 0.316 µM): < 31.6 nM
IC50 (second compound 1 µM): < 31.6 nM
IC50 (second compound 3.16 µM): < 31.6 nM
IC50 (second compound 10 µM): < 31.6 nM
viability, T/C [1]: 103%
viability, T/C [2]: 105%
viability, T/C [3]: 108%
viability, T/C [4]: 97.3%
viability, T/C [5]: 22%
viability, T/C [6]: 16.9%
viability, T/C [7]: 32%
viability, T/C [8]: 29.9%
viability, T/C [9]: 35.4%
viability, T/C [10]: 26%
viability, T/C [11]: 5.94%
viability, T/C [12]: 7.03%
viability, T/C [13]: 8.94%
viability, T/C [14]: 10.5%
viability, T/C [15]: 9.21%
viability, T/C [16]: 9.55%
viability, T/C [17]: 3.64%
viability, T/C [18]: 2.73%
viability, T/C [19]: 6.09%
viability, T/C [20]: 5.79%
viability, T/C [21]: 5.01%
viability, T/C [22]: 4.88%
viability, T/C [23]: 0.44%
viability, T/C [24]: 0.4%
viability, T/C [25]: 3.22%
viability, T/C [26]: 4.22%
viability, T/C [27]: 3.14%
viability, T/C [28]: 0.95%
viability, T/C [29]: 0.08%
viability, T/C [30]: 0.08%
viability, T/C [31]: 0.04%
viability, T/C [32]: 0.09%
viability, T/C [33]: 0.14%
viability, T/C [34]: 0.13%
viability, T/C [35]: 0.14%
viability, T/C [36]: 0.14%
